Assay results published in patent US8802664B2 (Bioproject, priority 2010, dated 2014).
Where two headings read alike, the source gives them in different places.

Molecular target: T1, human H4 receptor (Homo sapiens, UniProt Q9H3N8)
T1 construct: expressed in transfected cells
Assay: [3H]Histamine binding on membranes of CHO cells stably expressing human H4 receptor
In short: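 CHO-hH4 membranes 20 μg/well; buffer 50 mM Tris/HCl, 0.5 mM EDTA, pH 7.4; NSB: 10 μM JNJ 7777120 (BP1.2404); GF/B filtration (PEI-presoaked), 3 ice-cold washes; scintillation counting.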

T1 sequence (Q9H3N8 whole entry): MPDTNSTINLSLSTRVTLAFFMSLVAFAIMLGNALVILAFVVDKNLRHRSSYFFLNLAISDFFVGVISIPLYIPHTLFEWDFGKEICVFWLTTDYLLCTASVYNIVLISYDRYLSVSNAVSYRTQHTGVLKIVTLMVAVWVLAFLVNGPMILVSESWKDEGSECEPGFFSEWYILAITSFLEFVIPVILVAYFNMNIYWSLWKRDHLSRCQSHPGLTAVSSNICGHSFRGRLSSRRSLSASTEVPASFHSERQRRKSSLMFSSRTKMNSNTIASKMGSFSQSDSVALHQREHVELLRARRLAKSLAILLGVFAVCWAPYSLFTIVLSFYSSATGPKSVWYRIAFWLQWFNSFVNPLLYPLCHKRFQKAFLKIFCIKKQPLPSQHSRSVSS

Row | SMILES | Ki or IC50 activity class [µM] | Ki or IC50 activity class (human H4 receptor, evaluated in the GTPγ[35S] assay or in the [3H]histamine binding assay (not stated which per compound), Ki or IC50 class) [µM]
1 | CN1CCC(OC(c2cccc(C#CCNC(=N)N)c2)c2nc3ccccc3[nH]2)CC1 (centres unmarked) [Example 418, N-(3-{3-[(1H-benzimidazol-2-yl)(1-methylpiperidin-4-yloxy)methyl]phenyl}prop-2-ynyl)guanidine] | < 0.03 | –
2 | Cc1cccc(C(NC2CCN(C)CC2)c2nc3ccccc3s2)c1 (centres unmarked) [Example 21, [(benzothiazol-2-yl)(m-tolyl)methyl](1-methylpiperidin-4-yl)amine] | < 0.3 | –
3 | CN1CCC(OC(c2cccc(CCCNC(=N)N)c2)c2nc3ccccc3[nH]2)CC1 (centres unmarked) [Example 321, N-(3-{3-[(1H-benzimidazol-2-yl)(1-methylpiperidin-4-yloxy)methyl]phenyl}propyl)guanidine] | – | < 0.03
4 | CN1CCC(OC(c2cccc(C#CCCNC(=N)N)c2)c2nc3ccccc3[nH]2)CC1 (centres unmarked) [Example 393, N-(4-{3-[(1H-benzimidazol-2-yl)(1-methylpiperidin-4-yloxy)methyl]phenyl}but-3-ynyl)guanidine] | < 0.03 | –
5 | CN1CCC(OC(c2ccsc2)c2nc3ccccc3s2)CC1 (centres unmarked) [Example 16, 2-[(1-methylpiperidin-4-yloxy)thiophen-3-ylmethyl]benzothiazole] | < 0.03 | –
6 | CN1CCC(OC(c2cccc(-c3ccc(Cl)c(Cl)c3)c2)c2nc3ccccc3s2)CC1 (centres unmarked) [Example 133, 2-[(3′,4′-dichlorobiphenyl-3-yl)(1-methylpiperidin-4-yloxy)methyl]benzothiazole] | < 0.3 | –
7 | CN1CCC(OC(c2ccsc2)c2nc3ccccc3[nH]2)CC1 (centres unmarked) [Example 539] | < 0.3 | –
8 | CN1CCC(OC(c2cccc(-c3c[nH]nn3)c2)c2nc3ccccc3[nH]2)CC1 (centres unmarked) [Example 198, 2-{(1-methylpiperidin-4-yloxy)[3-(1H-[1,2,3]triazol-4-yl)phenyl]methyl}-1H-benzimidazole] | < 0.03 | –
9 | CSc1cccc(C(NC2CCN(C)CC2)c2nc3ccccc3s2)c1 (centres unmarked) [Example 111, [benzothiazol-2-yl(3-methylsulfanylphenyl)methyl](1-methylpiperidin-4-yl)amine] | < 0.03 | –
10 | CN1CCC(OC(c2cccc(SC(C)(C)C)c2)c2nc3ccccc3[nH]2)CC1 (centres unmarked) [Example 215, 2-[(3-tert-butylsulfanylphenyl)(1-methylpiperidin-4-yloxy)methyl]-1H-benzimidazole] | < 0.3 | –
11 | CN1CCC(OC(c2cccc(CCCCCN)c2)c2nc3ccccc3[nH]2)CC1 (centres unmarked) [Example 312, 5-{3-[(1H-benzimidazol-2-yl)(1-methylpiperidin-4-yloxy)methyl]phenyl}pentylamine] | < 0.3 | –
12 | CC(C)Oc1cccc(C(NC2CCN(C)CC2)c2nc3ccccc3s2)c1 (centres unmarked) [Example 88, [benzothiazol-2-yl(3-isopropoxyphenyl)methyl](1-methylpiperidin-4-yl)amine] | < 0.03 | –
13 | CN1CCC(OC(c2cccc(OC3CCC(N)C3)c2)c2nc3ccccc3s2)CC1 (centres unmarked) [Example 453] | < 0.03 | –
14 | CN1CCC(NC(c2cccc(F)c2)c2nc3ccccc3[nH]2)CC1 (centres unmarked) [Example 74, [(1H-benzimidazol-2-yl)(3-fluorophenyl)methyl](1-methylpiperidin-4-yl)amine] | < 0.3 | –
15 | CN1CCC(OC(c2cccc(SCCCCO)c2)c2nc3ccccc3s2)CC1 (centres unmarked) [Example 256, 4-{3-[benzothiazol-2-yl(1-methylpiperidin-4-yloxy)methyl]phenylsulfanyl}butan-1-ol] | < 0.03 | –
16 | CCSc1ccc(F)c(C(OC2CCN(C)CC2)c2nc3ccccc3[nH]2)c1F (centres unmarked) [Example 520] | < 0.3 | –
17 | Cc1cccc(C(NC2CCN(C)CC2)c2nc3ccccc3[nH]2)c1 (centres unmarked) [Example 84, [(1H-benzimidazol-2-yl)(m-tolyl)methyl](1-methylpiperidin-4-yl)amine] | < 1 | –
18 | CN1CCC(OC(c2cccc(C#CCCCCN)c2)c2nc3ccccc3[nH]2)CC1 (centres unmarked) [Example 337, 6-{3-[(1H-benzimidazol-2-yl)(1-methylpiperidin-4-yloxy)methyl]phenyl}hex-5-ynylamine] | < 0.03 | –
19 | Nc1ccc(C(OC2CCNCC2)c2nc3ccccc3[nH]2)cc1 (centres unmarked) [Example 456, 4-[(1H-benzimidazol-2-yl)(piperidin-4-yloxy)methyl]aniline] | < 1 | –
20 | CN1CCC(OC(c2cccc(OC(F)(F)F)c2)c2nc3ccccc3s2)CC1 (centres unmarked) [Example 23, 2-[(1-methylpiperidin-4-yloxy)(3-trifluoromethoxyphenyl)methyl]benzothiazole] | < 0.03 | –
21 | CN1CCC(OC(c2cccc(-c3ccccc3CO)c2)c2nc3ccccc3s2)CC1 (centres unmarked) [Example 127, {3′-[benzothiazol-2-yl(1-methylpiperidin-4-yloxy)methyl]biphenyl-2-yl}methanol] | < 0.3 | –

Row | SMILES | Ki or IC50 activity class [µM] | Ki or IC50 activity class (human H4 receptor, evaluated in the GTPγ[35S] assay or in the [3H]histamine binding assay (not stated which per compound), Ki or IC50 class) [µM]
22 | CN1CCC(OC(c2cccc(C3=CCN(C(=N)N)CC3)c2)c2nc3ccccc3[nH]2)CC1 (centres unmarked) [Example 353, 4-{3-[(1H-benzimidazol-2-yl)(1-methylpiperidin-4-yloxy)methyl]phenyl}-3,6-dihydro-2H-pyridine-1-carboxamidine] | < 0.3 | –
23 | CN1CCC(NC(c2cccc(OCC3CCCCC3)c2)c2nc3ccccc3s2)CC1 (centres unmarked) [Example 93, [benzothiazol-2-yl(3-cyclohexylmethoxyphenyl)methyl](1-methylpiperidin-4-yl)amine] | < 0.3 | –
24 | CN1CCC(OC(c2cccc(CCCCNC(=N)N)c2)c2nc3ccccc3[nH]2)CC1 (centres unmarked) [Example 308, N-(4-{3-[(1H-benzimidazol-2-yl)(1-methylpiperidin-4-yloxy)methyl]phenyl}butyl)guanidine] | < 0.3 | –
25 | CN1CCC(OC(c2cccc(OCc3ccccc3)c2)c2nc3ccccc3s2)CC1 (centres unmarked) [Example 45, 2-[(3-benzyloxyphenyl)(1-methylpiperidin-4-yloxy)methyl]benzothiazole] | < 0.03 | –
26 | CN1CCC(OC(c2cccc(N3CCC(O)CC3)c2)c2nc3ccccc3s2)CC1 (centres unmarked) [Example 411, 1-{3-[benzothiazol-2-yl(1-methylpiperidin-4-yloxy)methyl]phenyl}piperidin-4-ol] | < 1 | –
27 | C=CCCCOc1cccc(C(OC2CCN(C)CC2)c2nc3ccccc3s2)c1 (centres unmarked) [Example 168, 2-[(1-methylpiperidin-4-yloxy)(3-pent-4-enyloxy-phenyl)methyl]benzothiazole] | < 0.3 | –
28 | CN1CCC(OC(c2cccc(-c3ccccc3Cl)c2)c2nc3ccccc3[nH]2)CC1 (centres unmarked) [Example 121, 2-[(2′-Chlorobiphenyl-3-yl)(1-methylpiperidin-4-yloxy)methyl]-1H-benzimidazole] | < 0.3 | –
29 | CC(O)COCC#Cc1cccc(C(OC2CCN(C)CC2)c2nc3ccccc3s2)c1 (centres unmarked) [Example 276, 1-(3-{3-[benzothiazol-2-yl(1-methylpiperidin-4-yloxy)methyl]phenyl}prop-2-ynyloxy)-propan-2-ol] | < 0.03 | –
30 | CCSc1ccc(F)c(C(OC2CCN(C)CC2)c2nc3ccccc3[nH]2)c1 (centres unmarked) [Example 514] | < 0.03 | –
31 | CCOCCn1c(C(OC2CCN(C)CC2)c2cccc(I)c2)nc2ccccc21 (centres unmarked) [Example 497, 1-(2-ethoxyethyl)-2-[(3-iodophenyl)(1-methylpiperidin-4-yloxy)methyl]-1H-benzimidazole] | < 1 | –
32 | CN1CCC(OC(c2nc3ccccc3[nH]2)c2cc(I)ccc2F)CC1 (centres unmarked) [Example 425, 2-[(2-fluoro-5-iodo-phenyl)(1-methylpiperidin-4-yloxy)methyl]-1H-benzimidazole] | < 0.03 | –
33 | CN1CCC(OC(c2cccc(SCCNC(=N)N)c2)c2nc3ccccc3s2)CC1 (centres unmarked) [Example 302, N-(2-{3-[benzothiazol-2-yl(1-methylpiperidin-4-yloxy)methyl]phenylsulfanyl}ethyl)guanidine] | < 0.03 | –
34 | CCCCOc1cccc(C(NC2CCN(C)CC2)c2nc3ccccc3s2)c1 (centres unmarked) [Example 91, [benzothiazol-2-yl(3-butoxyphenyl)methyl](1-methylpiperidin-4-yl)amine] | < 0.03 | –
35 | CN1CCC(OC(c2cccc(C#CCN3C(=O)c4ccccc4C3=O)c2)c2nc3ccccc3[nH]2)CC1 (centres unmarked) [Example 189, 2-(3-{3-[(1H-benzimidazol-2-yl)(1-methylpiperidin-4-yloxy)methyl]phenyl}prop-2-ynyl)isoindole-1,3-dione] | < 0.3 | –
36 | CN1CCC(OC(c2cccc(OCCCO)c2)c2nc3ccccc3s2)CC1 (centres unmarked) [Example 258, 3-{3-[benzothiazol-2-yl(1-methylpiperidin-4-yloxy)methyl]phenoxy}propan-1-ol] | < 0.3 | –
37 | CN1CCC(OC(c2cccc(SCCO)c2)c2nc3ccccc3s2)CC1 (single isomer, unassigned) [Example 229, 2-{3-[benzothiazol-2-yl(1-methylpiperidin-4-yloxy)methyl]phenylsulfanyl}ethanol] | < 0.03 | –
38 | CCOC(=O)NCCCCC#Cc1cccc(C(OC2CCN(C)CC2)c2nc3ccccc3n2C)c1 (centres unmarked) [Example 549, ethyl (6-{3-[(1-methyl-1H-benzimidazol-2-yl)(1-methylpiperidin-4-yloxy)methyl]phenyl}hex-5-ynyl)carbamate] | < 1 | –
39 | CN1CCC(NC(c2cccc(OCc3cccc(F)c3)c2)c2nc3ccccc3[nH]2)CC1 (centres unmarked) [Example 105, {(1H-benzimidazol-2-yl)[3-(3-fluorobenzyloxy)phenyl]methyl}(1-methylpiperidin-4-yl)amine] | < 0.03 | –
40 | CN1CCC(OC(c2cccc(C#CCNC(=N)NC(=O)OC(C)(C)C)c2)c2nc3ccccc3[nH]2)CC1 (centres unmarked) [Example 336, N-tert-butoxycarbonyl-N′-(3-{3-[(1H-benzimidazol-2-yl)(1-methylpiperidin-4-yloxy)methyl]phenyl}prop-2-ynyl)guanidine] | < 0.3 | –
41 | CN1CCC(OC(c2cccc(N3CCCC3CO)c2)c2nc3ccccc3s2)CC1 (centres unmarked) [Example 324, (1-{3-[benzothiazol-2-yl(1-methylpiperidin-4-yloxy)methyl]phenyl}pyrrolidin-2-yl)methanol] | < 0.3 | –
